{
  "source": "ChEMBL document CHEMBL3739418",
  "about": "“RGD-peptides modifying dexamethasone: to enhance the anti-inflammatory efficacy and limit the risk of osteoporosis” (Medchemcomm, 2015)",
  "key": {"A549": {"tested_on": "A549", "assay": "Downregulation of DNA replication in human A549 cells at 1 uM after 48 hrs by UV-visible spectrophotometric analysis", "format": "functional, cell-based"}, "[1]": {"assay": "Drug metabolism in cytosome of human A549 cells assessed as dexamethasone dimer formation at 1 uM by ESI-MS analysis", "format": "ADME, cell-based, Cytoplasm", "conditions": "a549, 1 µM"}, "Mus musculus [2]": {"tested_on": "Mus musculus", "assay": "Antiinflammatory activity in xylene-induced ICR mouse edema model assessed as decrease in plasma IL8 level at 25.5 umol/kg, po after 60 mins by microplate reader analysis", "format": "functional, organism-based"}, "Mus musculus [3]": {"tested_on": "Mus musculus", "assay": "Toxicity in BALB/C mouse assessed as decrease in dry femur weight at 1.43 umol/kg/day, po administered for 15 days", "format": "organism-based", "conditions": "in vivo, 360 h"}, "Mus musculus [4]": {"tested_on": "Mus musculus", "assay": "Antiinflammatory activity in xylene-induced ICR mouse edema model assessed as decrease in plasma TNFalpha level at 25.5 umol/kg, po after 60 mins by microplate reader analysis", "format": "functional, organism-based"}, "Mus musculus [5]": {"tested_on": "Mus musculus", "assay": "Toxicity in BALB/C mouse assessed as total volumetric bone mineral density at 1.43 umol/kg/day, po administered for 15 days (reference value: 554.3 +/- 17.2 mg/cm3)", "format": "organism-based", "conditions": "in vivo, 360 h"}, "Mus musculus [6]": {"tested_on": "Mus musculus", "assay": "Antiinflammatory activity in ICR mouse assessed as inhibition of xylene-induced edema at 25.5 umol/kg, po administered for 30 mins prior to xylene challenge measured after 2 hrs", "format": "functional, organism-based"}, "Mus musculus [7]": {"tested_on": "Mus musculus", "assay": "Antiinflammatory activity in po dosed ICR mouse assessed as inhibition of xylene-induced edema administered for 30 mins prior to xylene challenge measured after 2 hrs", "format": "functional, organism-based"}, "Mus musculus [8]": {"tested_on": "Mus musculus", "assay": "Toxicity in BALB/C mouse assessed as decrease in ash weight at 1.43 umol/kg/day, po administered for 15 days", "format": "organism-based", "conditions": "in vivo, 360 h"}, "Mus musculus [9]": {"tested_on": "Mus musculus", "assay": "Toxicity in BALB/C mouse assessed as decrease in femur calcium level at 1.43 umol/kg/day, po administered for 15 days by o-methylphenolphthalein complexing ketone-based assay", "format": "organism-based", "conditions": "in vivo, 360 h"}, "Mus musculus [10]": {"tested_on": "Mus musculus", "assay": "Toxicity in BALB/C mouse assessed as femur loss at 1.43 umol/kg/day, po administered for 15 days by pQCT analysis", "format": "organism-based", "conditions": "in vivo, 360 h"}, "Mus musculus [11]": {"tested_on": "Mus musculus", "assay": "Toxicity in BALB/C mouse assessed as decrease in femur phosphor level at 1.43 umol/kg/day, po administered for 15 days by molybdenum blue-based assay", "format": "organism-based", "conditions": "in vivo, 360 h"}},
  "note": "Calls of active or inactive are those of the source. The calls are words filed in the database; no cut-off is given here. Residues, ends and D or L forms follow the SMILES beside them. *: point of attachment. Succinyl(O21-dexamethasone) = C[C@@H]1C[C@H]2[C@@H]3CCC4=CC(=O)C=C[C@]4(C)[C@@]3(F)[C@@H](O)C[C@]2(C)[C@@]1(O)C(=O)COC(=O)CCC(=O)*",
  "data": [
    {"molecule": "C[C@@H]1C[C@H]2[C@@H]3CCC4=CC(=O)C=C[C@]4(C)[C@@]3(F)[C@@H](O)C[C@]2(C)[C@@]1(O)C(=O)COC(=O)CCC(=O)N[C@@H](CCCNC(=N)N)C(=O)NCC(=O)N[C@@H](CC(=O)O)C(=O)N[C@@H](Cc1ccccc1)C(=O)O", "note": "({Succinyl(O21-dexamethasone)}-RGDF-OH)", "values": [
      {"measurement": "Activity", "setting": "A549", "value": "Active"},
      {"measurement": "Drug metabolism", "setting": "[1]", "value": "metabolite_detected"},
      {"measurement": "Activity", "setting": "Mus musculus [2]", "value": "Active"},
      {"measurement": "Activity", "setting": "Mus musculus [3]", "value": "Non-toxic"},
      {"measurement": "Activity", "setting": "Mus musculus [4]", "value": "Active"},
      {"measurement": "Activity", "setting": "Mus musculus [5]", "value": 555.1, "unit": "mg/cm3"},
      {"measurement": "inhibition", "setting": "Mus musculus [6]", "value": "Active"}
    ]},
    {"molecule": "C[C@@H]1C[C@H]2[C@@H]3CCC4=CC(=O)C=C[C@]4(C)[C@@]3(F)[C@@H](O)C[C@]2(C)[C@@]1(O)C(=O)COC(=O)CCC(=O)N[C@@H](CCCNC(=N)N)C(=O)NCC(=O)N[C@@H](CC(=O)O)C(=O)N[C@@H](CO)C(=O)O", "note": "({Succinyl(O21-dexamethasone)}-RGDS-OH)", "values": [
      {"measurement": "Activity", "setting": "A549", "value": "Active"},
      {"measurement": "Drug metabolism", "setting": "[1]", "value": "metabolite_detected"},
      {"measurement": "Activity", "setting": "Mus musculus [2]", "value": "Active"},
      {"measurement": "Activity", "setting": "Mus musculus [3]", "value": "Non-toxic"},
      {"measurement": "inhibition", "setting": "Mus musculus [7]", "value": "Dose-dependent effect"},
      {"measurement": "Activity", "setting": "Mus musculus [4]", "value": "Active"},
      {"measurement": "Activity", "setting": "Mus musculus [5]", "value": 558.5, "unit": "mg/cm3"}
    ]},
    {"molecule": "C[C@@H]1C[C@H]2[C@@H]3CCC4=CC(=O)C=C[C@]4(C)[C@@]3(F)[C@@H](O)C[C@]2(C)[C@@]1(O)C(=O)CO", "note": "[DEXAMETHASONE]", "values": [
      {"measurement": "Activity", "setting": "Mus musculus [8]", "value": "Toxic"},
      {"measurement": "Activity", "setting": "A549", "value": "Active"},
      {"measurement": "Activity", "setting": "Mus musculus [9]", "value": "Toxic"},
      {"measurement": "Activity", "setting": "Mus musculus [2]", "value": "Active"},
      {"measurement": "Activity", "setting": "Mus musculus [10]", "value": "Toxic"},
      {"measurement": "Activity", "setting": "Mus musculus [3]", "value": "Toxic"},
      {"measurement": "Activity", "setting": "Mus musculus [4]", "value": "Active"},
      {"measurement": "Activity", "setting": "Mus musculus [5]", "value": 506.3, "unit": "mg/cm3"},
      {"measurement": "inhibition", "setting": "Mus musculus [6]", "value": "Active"},
      {"measurement": "Activity", "setting": "Mus musculus [11]", "value": "Non-toxic"}
    ]},
    {"molecule": "CC(C)[C@H](NC(=O)[C@H](CC(=O)O)NC(=O)CNC(=O)[C@H](CCCNC(=N)N)NC(=O)CCC(=O)OCC(=O)[C@@]1(O)[C@H](C)C[C@H]2[C@@H]3CCC4=CC(=O)C=C[C@]4(C)[C@@]3(F)[C@@H](O)C[C@@]21C)C(=O)O", "note": "({Succinyl(O21-dexamethasone)}-RGDV-OH)", "values": [
      {"measurement": "Activity", "setting": "A549", "value": "Active"},
      {"measurement": "Drug metabolism", "setting": "[1]", "value": "metabolite_detected"},
      {"measurement": "Activity", "setting": "Mus musculus [2]", "value": "Active"},
      {"measurement": "Activity", "setting": "Mus musculus [3]", "value": "Non-toxic"},
      {"measurement": "Activity", "setting": "Mus musculus [4]", "value": "Active"},
      {"measurement": "Activity", "setting": "Mus musculus [5]", "value": 540.3, "unit": "mg/cm3"},
      {"measurement": "inhibition", "setting": "Mus musculus [6]", "value": "Active"}
    ]}
  ]
}
